Patent US20240400555A1 (Initial Therapeutics, Inc., priority 2023, published 2024)

Test system: HCT-116 Firefly-luciferase reporter cells
Test: Cellular c-MYC Reporter Assay
Format: cell-based
Conditions: Homo sapiens; untitled table following Table 8a; HCT-116 Firefly-luciferase reporter cells, 24 h; read-out: pIC50 (converted)
How it was run: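 Compound exposure lasted 24 h at 37 °C, 5% CO2, in complete McCoy's 5A medium containing 0.2% DMSO, beginning 4–6 h post-seeding (5e4 cells/mL). Firefly luciferase signal measured by luminescence after 10 min ONE-Glo development at room temperature.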

IC50 [nM]	Structure (SMILES)
1200	Cc1cccc2ccnc(N(C(=O)c3ccc(-n4nccn4)cc3F)[C@@H]3CCCNC3)c12 [Example 194, (R)-2-fluoro-N-(8-methylisoquinolin-1-yl)-N-(piperidin-3-yl)-4-(2H-1,2,3-triazol-2-yl)benzamide]
3890	Cc1cccc2ccnc(N(C(=O)c3ccc(Nc4nccs4)cc3F)[C@@H]3CCCNC3)c12 [Example 275, (R)-2-fluoro-N-(8-methylisoquinolin-1-yl)-N-(piperidin-3-yl)-4-(thiazol-2-ylamino)benzamide]
776	O=C(c1ccc(-n2nnc3cccnc32)cc1F)N(c1nccc2ccc(C#CCO)cc12)[C@@H]1CCCNC1 [Example 103, (R)-4-(3H-[1,2,3]triazolo[4,5-b]pyridin-3-yl)-2-fluoro-N-(7-(3-hydroxyprop-1-yn-1-yl)isoquinolin-1-yl)-N-(piperidin-3-yl)benzamide]
5130	CCOC(=O)c1cc(C2CCN(C(=O)N(c3nccc4cccc(C)c34)[C@@H]3CCCNC3)CC2)on1 [Example 279, ethyl (R)-5-(1-((8-methylisoquinolin-1-yl)(piperidin-3-yl)carbamoyl)piperidin-4-yl)isoxazole-3-carboxylate]
5890	CC1(c2ccno2)CCN(C(=O)N(c2cc3ccccc3cn2)[C@@H]2CCCNC2)CC1 [Example 190, (R)—N-(isoquinolin-3-yl)-4-(isoxazol-5-yl)-4-methyl-N-(piperidin-3-yl)piperidine-1-carboxamide]
1380	N#Cc1ccc2c(N(C(=O)c3ccc(-n4nnc5cccnc54)cc3F)[C@@H]3CCCNC3)nccc2c1 [Example 147, (R)-4-(3H-[1,2,3]triazolo[4,5-b]pyridin-3-yl)-2-fluoro-N-(6-cyanoisoquinolin-1-yl)-N-(piperidin-3-yl)benzamide]
708	Cc1cccc2ccnc(N(C(=O)c3ccc(-c4cccnc4)cc3)[C@@H]3CCCNC3)c12 [Example 233, (R)—N-(8-methylisoquinolin-1-yl)-N-(piperidin-3-yl)-4-(pyridin-3-yl)benzamide]
603	O=C(c1ccc(-n2nnc3cccnc32)cc1F)N(c1nccc2cc(F)ccc12)[C@@H]1CCCNC1 [Example 144, (R)-4-(3H-[1,2,3]triazolo[4,5-b]pyridin-3-yl)-2-fluoro-N-(6-fluoroisoquinolin-1-yl)-N-(piperidin-3-yl)benzamide]
3800	Cc1cccc2ccnc(N(C(=O)c3ccc(Nc4ncccc4N)cc3F)[C@@H]3CCCNC3)c12 [Example 274, (R)-4-((3-aminopyridin-2-yl)amino)-2-fluoro-N-(8-methylisoquinolin-1-yl)-N-(piperidin-3-yl)benzamide]
129	C=C(C)c1cccnc1N(C(=O)c1ccc(-n2nnc3cccnc32)cc1F)[C@@H]1CCCNC1 [Example 108, (R)-4-(3H-[1,2,3]triazolo[4,5-b]pyridin-3-yl)-2-fluoro-N-(piperidin-3-yl)-N-(3-(prop-1-en-2-yl)pyridin-2-yl)benzamide]
4790	Cc1cccc2ccnc(N(C(=O)c3ccc(-n4nnc5cccnc54)cc3)[C@H]3CNC[C@@H](C)C3)c12 [Example 225, 4-(3H-[1,2,3]triazolo[4,5-b]pyridin-3-yl)-N-(8-methylisoquinolin-1-yl)-N-((3R,5S)-5-methylpiperidin-3-yl)benzamide]
661	COC(=O)c1cccnc1N(C(=O)c1ccc(-n2nnc3cccnc32)cc1F)[C@@H]1CCCNC1 [Example 167, methyl (R)-2-(4-(3H-[1,2,3]triazolo[4,5-b]pyridin-3-yl)-2-fluoro-N-(piperidin-3-yl)benzamido)nicotinate]
> 20000	Cc1cccc2ccnc(N(C(=O)c3ccc(-c4onc5ccccc45)cc3F)[C@@H]3CCCNC3)c12 [Example 196, (R)-4-(benzo[c]isoxazol-3-yl)-2-fluoro-N-(8-methylisoquinolin-1-yl)-N-(piperidin-3-yl)benzamide]
56.2	Cc1cccc2ccnc(N(C(=O)c3ccc(-n4nnc5ccc(C(N)=O)nc54)cc3F)[C@@H]3CCCNC3)c12 [Example 170, (R)-3-(3-fluoro-4-((8-methylisoquinolin-1-yl)(piperidin-3-yl)carbamoyl)phenyl)-3H-[1,2,3]triazolo[4,5-b]pyridine-5-carboxamide]
8510	Cc1cccc2ccnc(N(C(=O)c3ccc(-n4nccn4)cc3)[C@@H]3CCCNC3)c12 [Example 235, (R)—N-(8-methylisoquinolin-1-yl)-N-(piperidin-3-yl)-4-(2H-1,2,3-triazol-2-yl)benzamide]
> 10000	Cn1cc(-c2ccc(C(=O)N(c3cc(/C=C/c4ccccc4)ccn3)[C@@H]3CCCNC3)cc2)nn1 [Example 109, (R,E)-4-(1-methyl-1H-1,2,3-triazol-4-yl)-N-(piperidin-3-yl)-N-(4-styrylpyridin-2-yl)benzamide]
437	CCc1ccc2nnn(-c3ccc(C(=O)N(c4nccc5cccc(C)c45)[C@@H]4CCCNC4)c(F)c3)c2n1 [Example 216, (R)-4-(5-ethyl-3H-[1,2,3]triazolo[4,5-b]pyridin-3-yl)-2-fluoro-N-(8-methylisoquinolin-1-yl)-N-(piperidin-3-yl)benzamide]
60.3	Cc1cccc2ccnc(N(C(=O)c3ccc(-n4nnc5cccnc54)cc3)[C@@H]3CCCNC3)c12 [Example 241, (R)-4-(3H-[1,2,3]triazolo[4,5-b]pyridin-3-yl)-N-(8-methylisoquinolin-1-yl)-N-(piperidin-3-yl)benzamide]
170	Cc1cccc2ccnc(N(C(=O)c3ccc(-n4nnc5ccc(C(F)(F)F)nc54)cc3F)[C@@H]3CCCNC3)c12 [Example 205, (R)-2-fluoro-N-(8-methylisoquinolin-1-yl)-N-(piperidin-3-yl)-4-(5-(trifluoromethyl)-3H-[1,2,3]triazolo[4,5-b]pyridin-3-yl)benzamide]
200	Cc1cnc(Nc2ccc(C(=O)N(c3nccc4cccc(C)c34)[C@@H]3CCCNC3)c(F)c2)nc1 [Example 186, (R)-2-fluoro-N-(8-methylisoquinolin-1-yl)-4-((5-methylpyrimidin-2-yl)amino)-N-(piperidin-3-yl)benzamide]
339	Cc1nnc(-c2ccc(C(=O)N(c3nccc4cccc(C)c34)[C@@H]3CCCNC3)c(F)c2)s1 [Example 127, (R)-2-fluoro-4-(5-methyl-1,3,4-thiadiazol-2-yl)-N-(8-methylisoquinolin-1-yl)-N-(piperidin-3-yl) benzamide]
9330	Cc1cccc2ccnc(N(C(=O)c3ccc(-n4nnc5cccnc54)cc3F)[C@H]3CNCC(F)(F)C3)c12 [Example 175, (R)-4-(3H-[1,2,3]triazolo[4,5-b]pyridin-3-yl)-N-(5,5-difluoropiperidin-3-yl)-2-fluoro-N-(8-methylisoquinolin-1-yl)benzamide]
1910	O=C(c1ccc(I)cc1F)N(c1nccc2cccc(Cl)c12)[C@@H]1CCCNC1 [Example 141, (R)—N-(8-chloroisoquinolin-1-yl)-2-fluoro-4-iodo-N-(piperidin-3-yl)benzamide]
692	O=C(c1ccc(-n2nnc3cccnc32)cc1F)N(c1nccc2sc(/C=C/CO)cc12)[C@@H]1CCCNC1 [Example 158, (R,E)-4-(3H-[1,2,3]triazolo[4,5-b]pyridin-3-yl)-2-fluoro-N-(2-(3-hydroxyprop-1-en-1-yl)thieno[3,2-c]pyridin-4-yl)-N-(piperidin-3-yl)benzamide]
